Source: patent US9339038B2, “Herbicidal composition” (priority 2012, dated 2016)
Counter-ions that a name gives are not always drawn.

How the values were obtained:
Format in all cases: in vivo
[1] = tested on: manilagrass (Zoysia matrella (L.) Merr.); assay: Test Example 10: foliar treatment of manilagrass turf, visual growth inhibition rate (safety for turfgrass); conditions: for Growth inhibition rate (%) of manilagrass: foliar, 28th day after treatment
Protocol: (§1) Upland field soil was put into a 1/1,000,000 ha pot, and rhizomes of green kyllinga (Kyllinga brevifolia Rottb. var. leiolepis) were planted. When the green kyllinga reached a height of from 6 to 7 cm, predetermined amounts of Lentagran WP (tradename) and WG formulation containing as an active ingredient amicarbazone having the same mode of action as pyridate (tradename: Dinamic, manufactured by Arysta Life Science) were diluted with water (in an amount corresponding to 2,000 L/ha) and applied for foliar treatment by a small sprayer. Separately, upland field soil was put into a 1/300,000 ha pot, and turf of manilagrass (Zoysia matrella (L.) Merr.) was put. After the manilagrass took root, predetermined amounts of Lentagran WP (tradename) and Dinamic (tradename) were diluted with water (in an amount corresponding to 2,000 L/ha) and applied for foliar treatment by a small sprayer.
(§2) On the 27th day after treatment, the state of growth of green kyllinga was visually observed, and on the 28th day after treatment, the state of growth of the manilagrass was visually observed, to determine the growth inhibition rate (%).

[2] = tested on: green kyllinga (Kyllinga brevifolia Rottb. var. leiolepis); assay: Test Example 10: foliar treatment of green kyllinga (height 6 to 7 cm), visual growth inhibition rate; conditions: 27th day after treatment
Protocol: as §1, §2

[3] = tested on: green kyllinga (Kyllinga brevifolia Rottb. var. leiolepis); assay: Test Example 4: single or repeated foliar treatment of green kyllinga (height 5 to 7 cm), visual growth inhibition rate; conditions: Cyperus brevifolius, 21st day after first treatment
Protocol: (§3) Upland field soil was put into a 1/1,000,000 ha pot, and rhizomes of green kyllinga (Kyllinga brevifolia Rottb. var. leiolepis) were planted. When the green kyllinga reached a height of from 5 to 7 cm, a predetermined amount of EC formulation containing pyridate as an active ingredient was diluted with water (in an amount corresponding to 2,000 L/ha) and applied for foliar treatment by a small sprayer. Further, on the 7th day after the foliar treatment, second treatment was carried out in the same manner on part of the green kyllinga.
On the 21st day after the first treatment, the state of growth of the green kyllinga was visually observed to determine the growth inhibition rate (%).

[4] = tested on: persian speedwell (Veronica persica Poir.); assay: Test Example 6: foliar treatment of potted persian speedwell, visual growth inhibition rate; conditions: 14th day after treatment, read-out: Growth inhibition rate (%) of persian speedwell Measured value
Protocol: (§4) Upland field soil was put into a 1/1,000,000 ha pot, and seeds of persian speedwell (Veronica persica Poir.) were sown. When the persian speedwell reached 4.3 to 5.2-leaf stage, predetermined amounts of EC formulation containing pyridate as an active ingredient and ONEHOPE NYUZAI (tradename) were diluted with water (in an amount corresponding to 300 L/ha) and applied for foliar treatment by a small sprayer.
(§5) On the 14th day after treatment, the state of growth of the persian speedwell was visually observed to determine the growth inhibition rate (%). The growth inhibition rate (%) (measured value) and the growth inhibition rate (%) calculated in the same manner as in the above Test Example 1 are shown in Table 6.

[5] = tested on: green kyllinga (Kyllinga brevifolia Rottb. var. leiolepis); assay: Test Example 3: foliar treatment of green kyllinga at 5-leaf stage, visual growth inhibition rate; conditions: Cyperus brevifolius, 21st day after treatment
Protocol: as §3, with “5-leaf stage,” for “a height of from 5 to 7 cm,”, “sprayer.” for “sprayer. Further, on the 7th day after the foliar treatment, second treatment was carried out in the same manner on part of the green kyllinga.”
On the 21st day after treatment, the state of growth of the green kyllinga was visually observed to determine the growth inhibition rate (%).

[6] = tested on: summer grass (Digitaria ciliaris (Retz.) Koeler); assay: Test Example 8: foliar treatment of potted summer grass, visual growth inhibition rate on 14th day; conditions: read-out: Growth inhibition rate (%) of summer grass Measured value
Source text: Upland field soil was put into a 1/1,000,000 ha pot, and seeds of summer grass (Digitaria ciliaris (Retz.) Koeler) were sown.

[7] = tested on: summer grass (Digitaria ciliaris (Retz.) Koeler); assay: Test Example 7: foliar treatment of potted summer grass, visual growth inhibition rate on 7th day; conditions: 7th day after treatment
Protocol: as §4, with “summer grass (Digitaria ciliaris (Retz.) Koeler)” for “persian speedwell (Veronica persica Poir.)”, “summer grass” for “persian speedwell”, “4.0” for “4.3”, “5.0-leaf” for “5.2-leaf”, “Monument WG” for “ONEHOPE NYUZAI”
as §5, with “7th” for “14th”, “summer grass” for “persian speedwell”, “7.” for “6.”

[8] = tested on: green kyllinga (Kyllinga brevifolia Rottb. var. leiolepis); assay: Test Example 1: foliar treatment of potted green kyllinga in heading stage, visual growth inhibition rate
Source text: When the herbicidal activity in a case where two active ingredients are combined, is larger than the simple sum of the respective herbicidal activities of the two active ingredients (the expected activity), it is called a synergistic effect. The activity expected by the combination of two active ingredients can be calculated as follows (Colby S. R., “Weed”, vol. 15, p. 20-22, 1967). E=(α+β)−(αβ)/100 where α: growth inhibition rate when treated with x (g/ha) of herbicide X,
β: growth inhibition rate when treated with y (g/ha) of herbicide Y,
E: growth inhibition rate expected when treated with x (g/ha) of herbicide X and y (g/ha) of herbicide Y.
That is, when the actual growth inhibition rate (measured value) is larger than the growth inhibition rate by the above calculation (calculated value), the activity by the combination can be regarded as showing a synergistic effect.
Upland field soil was put into a 1/1,000,000 ha pot, and rhizomes of green kyllinga (Kyllinga brevifolia Rottb. var. leiolepis) were planted. On the 59th day after planting, to the green kyllinga in heading stage, predetermined amounts of EC formulation containing pyridate as an active ingredient (tradename: Pyridate 600EC, manufactured by BCP), WG formulation containing flazasulfuron as an active ingredient (tradename: SHIBAGEN DF, manufactured by Ishihara Sangyo Kaisha, Ltd.), WG formulation containing trifloxysulfuron Na salt as an active ingredient (tradename: Monument WG, manufactured by Syngenta Japan K.K.), SC formulation containing nicosulfuron as an active ingredient (tradename: ONEHOPE NYUZAI, manufactured by Ishihara Sangyo Kaisha, Ltd.), WG formulation containing halosulfuron-methyl as an active ingredient (tradename: INPOOL DF, manufactured by Nissan Chemical Industries, Ltd.) and WG formulation containing chlorimuron-ethyl as an active ingredient (tradename: ATTRACTIVE, manufactured by MARUWA Biochemical Co., Ltd.) were diluted with water in an amount corresponding to 2,000 L/ha, and applied for foliar treatment by a small sprayer.
On the 14th day after treatment, the state of growth of the green kyllinga was visually observed to determine the growth inhibition rate (%) in accordance with the following evaluation standard. The growth inhibition rate (%) (measured value) and the growth inhibition rate (%) (calculated value) calculated by the Colby's formula are shown in Table 1.
Growth inhibition rate (%)=0 (equivalent to the non-treated area) to 100 (complete kill)

[9] = tested on: prickly sida (Sida spinosa L.); assay: Test Example 2: foliar treatment of potted prickly sida, visual growth inhibition rate; conditions: 14th day after treatment, read-out: Growth inhibition rate (%) of prickly sida Measured value
Protocol: Upland field soil was put into a 1/1,000,000 ha pot, and seeds of prickly sida (Sida spinosa L.) were sown. When the prickly sida reached 5.5 to 5.8-leaf stage, predetermined amounts of a wettable powder containing pyridate as an active ingredient (tradename: Lentagran WP, manufactured by BCP) and ONEHOPE NYUZAI (tradename) were diluted with water in an amount of corresponding to 1,000 L/ha and applied for foliar treatment by a small sprayer.
as §5, with “prickly sida” for “persian speedwell”, “2.” for “6.”

[10] = tested on: green kyllinga (Kyllinga brevifolia Rottb. var. leiolepis); assay: Test Example 5: autumn foliar treatment of green kyllinga, visual growth inhibition rate on 220th day; conditions: Cyperus brevifolius, 220th day after treatment
Protocol: Upland field soil was put into a 1/300,000 ha pot, and rhizomes of green kyllinga (Kyllinga brevifolia Rottb. var. leiolepis) were planted. In the autumn of the next year, a predetermined amount of EC formulation containing pyridate as an active ingredient was diluted with water (in an amount corresponding to 2,000 L/ha) and applied for foliar treatment by a small sprayer.
On the 220th day after treatment, the state of growth of the green kyllinga was visually observed to determine the growth inhibition rate (%).

[11] = Cyperus brevifolius, read-out: Growth inhibition rate (%) of green kyllinga Measured value

## CC(C)c1nn(C(=O)NC(C)(C)C)c(=O)n1N [Amicarbazone, amicarbazone]
[1]; dose 800 g/ha
  Growth inhibition rate (%) of manilagrass: 30%
[2]; dose 400 g/ha
  Growth inhibition rate (%) of green kyllinga: 30%
[2]; dose 800 g/ha
  Growth inhibition rate (%) of green kyllinga: 86%

## CCCCCCCCSC(=O)Oc1cc(Cl)nnc1-c1ccccc1 [Pyridate, O-6-chloro-3-phenylpyridazin-4-yl S-octylthiocarbonate]
[3]; 1st treatment 1200 g/ha, 2nd treatment 1200 g/ha on 7th day
  inhibition at 1200 g/ha: 100%
[3]; 1st treatment 2400 g/ha, no 2nd treatment
  inhibition at 2400 g/ha: 87%
[3]; 1st treatment 3600 g/ha, no 2nd treatment
  inhibition at 3600 g/ha: 89%
[4]; dose 300 g/ha
  inhibition at 300 g/ha: 70%
[5]; dose 1200 g/ha
  inhibition at 1200 g/ha: 90%
[5]; dose 2400 g/ha
  inhibition at 2400 g/ha: 100%
[6]; dose 3000 g/ha, 14th day after treatment
  inhibition at 3000 g/ha: 50%
[7]; Digitaria ciliaris, dose 300 g/ha, read-out: Growth inhibition rate (%) of summer grass Measured value
  inhibition at 300 g/ha: 8%
[1]; dose 2000 g/ha
  Growth inhibition rate (%) of manilagrass: 5%
[1]; dose 4000 g/ha
  Growth inhibition rate (%) of manilagrass: 15%
[1]; dose 8000 g/ha
  Growth inhibition rate (%) of manilagrass: 15%
[1]; practical doses, summary of Table 9
  safety for turfgrass: high safety for turfgrass
[8]; Cyperus brevifolius, dose 500 g/ha, 14th day after treatment, read-out: Growth inhibition rate (%) of green kyllinga Measured value
  inhibition at 500 g/ha: 18%
[8]; Cyperus brevifolius, dose 2000 g/ha, 14th day after treatment, read-out: Growth inhibition rate (%) of green kyllinga Measured value
  inhibition at 2000 g/ha: 50%
[9]; dose 300 g/ha
  inhibition at 300 g/ha: 38%
[10]; dose 2000 g/ha
  inhibition at 2000 g/ha: 100%
[10]; dose 4000 g/ha
  inhibition at 4000 g/ha: 100%
[2]; Cyperus brevifolius, dose 2000 g/ha
  inhibition at 2000 g/ha: 76%
[2]; Cyperus brevifolius, dose 4000 g/ha
  inhibition at 4000 g/ha: 94%

## COc1cc(OC)nc(NC(=O)NS(=O)(=O)c2ncccc2C(=O)N(C)C)n1 [Nicosulfuron, 2-(4,6-dimethoxypyrimidin-2-ylcarbamoylsulfamoyl)-N,N-dimethylnicotinamide]
[4]; dose 100 g/ha
  inhibition at 100 g/ha: 5%
[8]; Cyperus brevifolius, dose 80 g/ha, 14th day after treatment, read-out: Growth inhibition rate (%) of green kyllinga Measured value
  inhibition at 80 g/ha: 15%
[9]; dose 15 g/ha
  inhibition at 15 g/ha: 30%

## CCOC(=O)c1ccccc1S(=O)(=O)NC(=O)Nc1nc(Cl)cc(OC)n1 [Chlorimuron-ethyl, chlorimuron-ethyl]
[8]; [11]
  inhibition at 100 g/ha: 18%

## COc1cc(OC)nc(NC(=O)NS(=O)(=O)c2ncccc2C(F)(F)F)n1 [Flazasulfuron, 1-(4,6-dimethoxypyrimidin-2-yl)-3-(3-trifluoromethyl-2-pyridylsulfonyl)urea]
[8]; Cyperus brevifolius, dose 50 g/ha, 14th day after treatment, read-out: Growth inhibition rate (%) of green kyllinga Measured value
  inhibition at 50 g/ha: 33%

## COc1cc(OC)nc(NC(=O)NS(=O)(=O)c2ncccc2OCC(F)(F)F)n1 [Trifloxysulfuron Na salt]
[7]; dose 100 g/ha
  Growth inhibition rate (%) of summer grass Measured value: 40%
[8]; dose 45 g/ha, 14th day after treatment
  Growth inhibition rate (%) of green kyllinga Measured value: 15%

## COC(=O)c1c(Cl)nn(C)c1S(=O)(=O)NC(=O)Nc1nc(OC)cc(OC)n1 [Halosulfuron-methyl, halosulfuron-methyl]
[6]
  inhibition at 150 g/ha: 0%
[8]; [11]
  inhibition at 375 g/ha: 10%
